Measured values: patent publication US5958947A, “DNA-affinic hypoxia selective cytotoxins” (priority 1996, dated 1999)
Values joined by “and” are separate entries in the source; they are usually repeats but may differ in a detail not shown here. Equal values may be shown once. “Also recorded” adds a separate entry of the source. Where a name gives a salt, the structure may show the parent alone. Read-outs that look alike come from different tables or passages of the source.

How the values were obtained:
V79 cells [1] = test: Isoeffective to the oxygen dose (IsD); assay type: cell-based, Chinese hamster; settings: Cricetulus griseus; for EC (isoeffective to oxygen at 7.5 Gy): read-out: Isoeffective to the oxygen dose at 7.5 Gy: IsD(7.5); for EC (isoeffective to oxygen at 20 Gy): read-out: Isoeffective to the oxygen dose at 20 Gy: IsD
Text: The survival fraction under hypoxic conditions (plotted versus compound concentration) meets the aerobic survival fraction (radiation toxicity) at the IsD. The IsD value is a useful indicator of the overall potency of a compound as a sensitizer and cytotoxin of hypoxic cells. IsD is especially useful when comparing different compounds for hypoxic cytotoxicity and radiosensitizing efficacy.
FIGS. 5 and 6 illustrate the IsD at 7.5 Gy (FIG. 5A) and 20 Gy (FIG. 5B). FIGS. 5A and 6A include a comparison to the prior art NLA-1 compound. V79 cells were irradiated at 7.5 Gy or 20 Gy after a 1 hour exposure under hypoxia (symbols) or air (straight line), at various drug concentrations. No toxicity or radiosensitization for any tested compound was observed under aerobic conditions over the tested concentration ranges. IsD values were calculated from the intersections of the survival fractions of the hypoxic curves with the survival fraction in air. All data points in FIGS. 5 and 6 represent the mean of two replicate experiments.

calf thymus Topo I [2] = target: T1, calf thymus Topo I (Bos taurus, UniProt F1MN93); test: Topoisomerase I interaction (relaxation of supercoiled DNA); assay type: biochemical; settings: for IC100: 0.5 h; for IC50: Topo I inhibition (50%)-dose, Topo I-induced relaxation of supercoiled DNA
T1 construct: purchased TopoGEN, Inc., Columbus, Ohio; host or cells: calf thymus
T1 sequence (F1MN93 1-767): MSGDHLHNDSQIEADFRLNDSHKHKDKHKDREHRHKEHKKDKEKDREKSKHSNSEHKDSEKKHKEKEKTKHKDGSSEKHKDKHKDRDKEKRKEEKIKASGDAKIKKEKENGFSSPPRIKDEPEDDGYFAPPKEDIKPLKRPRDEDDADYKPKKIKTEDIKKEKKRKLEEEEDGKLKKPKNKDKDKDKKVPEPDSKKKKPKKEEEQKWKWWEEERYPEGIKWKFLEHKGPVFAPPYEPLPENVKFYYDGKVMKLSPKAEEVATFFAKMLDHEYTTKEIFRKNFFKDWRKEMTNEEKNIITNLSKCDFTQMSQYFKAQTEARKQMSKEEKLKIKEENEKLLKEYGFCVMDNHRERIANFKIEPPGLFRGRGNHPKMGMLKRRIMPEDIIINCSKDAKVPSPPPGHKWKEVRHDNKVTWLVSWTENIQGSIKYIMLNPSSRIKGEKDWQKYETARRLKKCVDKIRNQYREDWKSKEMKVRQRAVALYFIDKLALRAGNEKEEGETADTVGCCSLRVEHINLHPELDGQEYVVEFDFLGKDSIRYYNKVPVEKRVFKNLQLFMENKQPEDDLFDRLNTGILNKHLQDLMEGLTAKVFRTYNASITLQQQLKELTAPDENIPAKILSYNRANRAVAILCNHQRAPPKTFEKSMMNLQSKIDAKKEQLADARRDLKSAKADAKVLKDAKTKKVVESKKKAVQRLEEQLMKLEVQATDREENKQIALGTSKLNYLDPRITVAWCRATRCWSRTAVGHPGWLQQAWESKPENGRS
Method: (§1) In particular, a Topo I drug screening kit (TopoGEN, Inc., Columbus, Ohio) was used to assay the topoisomerase I THNLA-1 interaction. […] Camptothecin is a Topoisomerase I poison used as an anticancer drug. Camptothecin stabilizes the Topo I-DNA cleavable complex, and therefore prevents the resealing of DNA by Topo-I.
(§2) Individual reaction mixtures were heated for 30 minutes at 37° C. on a heating block, and then 2 μl of 10% SDS - proteinase K solution was added to each reaction mixture. The resulting reaction mixtures then were heated for an additional 30 minutes at 37° C. The reaction mixtures in a loading buffer were extracted with CHCl3 prior to submarine electrophoresis on a 1% agarose gel. The DNA bands were observed visually by staining with ethidium bromide (0.5 μg/ml).

calf thymus Topo I [3] = test: as above; assay type: biochemical; settings: 800 μM, compound alone
Method: as §1, §2

supercoiled DNA = test: DNA intercalation by agarose gel electrophoresis (mobility of supercoiled DNA); assay type: binding; settings: electrophoretic gel, up to millimolar concentrations
Text: An agarose gel electrophoresis technique was used to determine whether THNLA-1 intercalates DNA. Compounds that strongly intercalate DNA retard DNA mobility during agarose gel electrophoresis due to unwinding and extension of the dsDNA.

V79 cells [4] = test: Drug uptake: intracellular and extracellular concentrations in V79 cells; assay type: cell-based, Chinese hamster
Method: Also, uptake measurements at various times under both aerobic and hypoxic conditions were made. Afterwards, the samples were pelleted by centrifuging for 6 minutes at 0° C. A small volume of the supernatant (200 μl) was combined with 9 equal volumes (1.8 ml) of acetonitrile and the remaining supernatant was discarded. The samples were centrifuged again to remove residual supernatant and the pellets were lysed with 90 μl water and deproteinized with 0.9 ml acetonitrile. After centrifugation and filtration, all samples were stored at -70° C. until a UV spectroscopic analysis was made at two different wave lengths: 330 nm (nanometers) (absorption of the nitro-group) and 244 nm (λmax). […] Mean intracellular concentration of drug was calculated using a value of 810 fl as an intracellular water content of log-phase cells.
Concentrations were determined by UV spectrophotometry at 330 nm. The plotted points represent results from two experiments, in triplicate.

V79 cells [5] = test: Drug uptake in the presence of ammonium chloride; assay type: cell-based, Chinese hamster; settings: aerobic V79 cells, 60 μM input, 50 mM NH4Cl (stated for THNLA-1)
Method: Uptake measurements in the presence of the lysosomotropic agent ammonium chloride (NH4 Cl) also were performed in a manner as previously described.
Concentrations were determined by UV spectrophotometry at 330 nm. The plotted points represent the mean of two experiments.

[6] = Toxicity study in balb mice; assay type: in vivo
OVCAR cells = test: Chemosensitization of OVCAR cells to L-PAM and cis-DDP; assay type: cell-based; settings: OVCAR cells resistant to L-PAM and cis-DDP
Text: A longer hypoxic preexposure time and a lower sensitizer dose are preferred over a shorter hypoxic preexposure time and a higher sensitizer dose. […] OVCAR cells are resistant to L-PAM and cis-DDP.

EMT6 tumors = test: In vivo radiosensitization of EMT6 tumors; design: species or system balb mice; settings: 0.103 mmol/g intraperitoneally, 20 Gy

Molecule `O=[N+]([O-])c1nccn1CCCNc1c2c(nc3ccccc13)CCSC2` [S-THNLA-1, 10-[3-(2-nitroimidazolyl)propylamino]-3,4-dihydro-1-H-thiopyrano[4,3-b]quinoline hydrochloride] has an EC (isoeffective to oxygen at 7.5 Gy) (V79 cells [1]; V79, 1 h) of 60 µM, an EC (isoeffective to oxygen at 20 Gy) (V79 cells [1]; V79, 1 h) of about 103 µM and an IC100 (calf thymus Topo I [2]; read-out: concentration for complete inhibition of Topo I) of about 800 µM. For the same molecule, the IC50 (calf thymus Topo I [2]) was about 800 µM, the “formation of nicked DNA with Topo I” value (calf thymus Topo I [2]; in Topo I test) was “some nicked DNA also was observed” and the “formation of nicked DNA by compound alone” value (calf thymus Topo I [3]) was “caused the formation of some nicked DNA”. For the same molecule, the “effect on mobility of supercoiled DNA” value (supercoiled DNA) was “do not affect the mobility of supercoiled DNA” and the solubility (Water solubility) was about 9.5 mM.
With `Cl.O=[N+]([O-])c1nccn1CCCNc1c2c(nc3ccccc13)CCCC2` [THNLA-1, 9-[3-(2-nitro-1-imidazolyl)propylamino]-1,2,3,4-tetrahydroacridine hydrochloride] the “Ci over 15, 30 and 60 minutes, aerobic” value (V79 cells [4]; 20 μM, aerobic V79 cells, 37° C.) was “basically unchanged”, the “Ci over time, hypoxic” value (V79 cells [4]; 20 μM, hypoxic V79 cells, 37° C.) was “a decrease of Ci over time” and the “Ci compared with Ce” value (V79 cells [4]; V79 cells, 37° C., input 0 to 500 μM or 20 μM) was “substantially greater”. For the same molecule, the “aerobic mean uptake factor (Ci/Ce) compared to NLA-1” value (V79 cells [4]; aerobic V79 cells) was “did not result in an increase of the aerobic mean uptake factor”, the “input concentration at which the uptake factor (Ci/Ce) reaches a maximum” value (V79 cells [4]; aerobic, 30 minutes, 37° C.) was “about 100 μM” and the “factor of decrease of Ci in the presence of NH4Cl” value (V79 cells [5]) was “about 3”. The nontoxic concentration [6] was “at least 0.129 mmol/g”, the EC (isoeffective to oxygen at 7.5 Gy) (V79 cells [1]; V79, 1 h, 7.5 Gy, 1 hour at 37° C.) was about 40 µM and the EC (isoeffective to oxygen at 20 Gy) (V79 cells [1]; V79, 20 Gy, 1 hour at 37° C.) was about 78 µM. The “Topo I-dependent single-stranded DNA cleavage” value (calf thymus Topo I [2]) was “not observed”, the IC100 (calf thymus Topo I [2]; read-out: complete inhibition of Topo I not observed up to) was over 1000 µM and the IC50 (calf thymus Topo I [2]) was ~600 µM and 600 µM. The “inhibition of Topo I-induced relaxation” value (calf thymus Topo I [2]; supercoiled DNA) was “inhibits Topo I-induced relaxation of supercoiled DNA, but at significantly higher concentrations than NLA-type compounds”, the “concentration at which inhibition of Topo I starts” value (calf thymus Topo I [2]; supercoiled DNA relaxation) was 100 µM and the “effect on mobility of supercoiled DNA” value (supercoiled DNA) was “do not affect the mobility of supercoiled DNA”. For the same molecule, the “chemosensitization to L-PAM and cis-DDP” value (OVCAR cells) was “effectively chemosensitizes OVCAR cells”, the “administration time before irradiation for maximum radiosensitization” value (EMT6 tumors) was “at least one hour before irradiation” and the “radiosensitizing effect in vivo” value (EMT6 tumors; EMT6 tumors in balb mice, hydrochloride) was “synergistic effect; also recorded: potent radiosensitizing effect; also recorded: enhanced the effects of 20 Gy radiation in EMT6 tumors to a similar degree as 2 mmol/g of etanidazole”. For the same molecule, the solubility (Water solubility) was about 12 mM.
